One assay addresses T1, rh integrin α4β7 (Homo sapiens, UniProt P13612+P26010).
T1 construct: purchased R&D Systems 5397-A30
Nature of the assay: α4β7-MAdCAM Competition ELISA. Particulars: Table 3-B, Potency (α4β7); range classes; read-out: α4β7 ELISA IC50. The format is binding. The procedure: A nickel coated plate (Pierce #15442) was coated with rh integrin α4β7 (R&D Systems #5397-A30) at 800 ng/well and incubated at room temperature with shaking for 1 hr. The solution was then removed by shaking and blocked with assay buffer (50 mM Tris-HCl pH7.6, 150 mM NaCl, 1 mM MnCl2 or MgCl2, 0.05% Tween-20 and 0.5% BSA) at 250 ul/well. The plate was then incubated at room temperature for 1 hr. Each well was washed 3 times with wash buffer (50 mM Tris-HCl pH7.6, 100 mM NaCl, 1 mM MnCl2 or MgCl2, 0.05% Tween-20). To each well was added 25 ul of a serial dilution (3-fold dilutions in assay buffer) of peptide starting at 20 μM. 25 ul of recombinant human MAdCAM-1 (R&D Systems #6056-MC) was then added to each well at a fixed concentration 20 nM. The final starting peptide concentration was 10 μM, and the final MAdCAM-1 concentration was 10 nM. The plates were then incubated at room temperature for 1 hr to reach binding equilibrium. The wells were then washed three times with wash buffer. 50 ul of mouse anti-human IgG1-HRP (Invitrogen # A10648) diluted in 1:2000 in assay buffer was then added to each well. The wells were incubated at room temperature for 45 min with shaking. The wells were then washed 3 times with wash buffer. 100 ul of 3,3′,5,5′-Tetramethylbenzidine (TMB) were then added to each well and closely observe during development time. The reaction was stopped with 2N H2SO4 and absorbance was read at 450 nm.
TMB is a chromogenic substrate suitable for use in ELISA procedures, which utilize horseradish peroxidase conjugates. This substrate produces a soluble end product that is blue in color and can be read spectrophotometrically at 370 or 655 nm. The reaction maybe stopped with 2 M H2S04, resulting in a yellow solution that is read at 450 nm. Each tablet contains 1 mg of TMB substrate. To prepare TMB Substrate Solution, dissolve one 3,3′,5,5′-tetramethylbenzidine tablet in 1 ml of DMSO and add to 9 ml of 0.05 M Phosphate-Citrate Buffer, pH 5.0. Add 2 μl of fresh 30% hydrogen peroxide (Product No. H 1009) per 10 ml of substrate buffer solution, immediately prior to use.

For the next assay, the target named is α4β7 (Homo sapiens, UniProt P13612+P26010). Nature of the assay: α4β7-MAdCAM Cell Adhesion Assay (RPMI 8866 human cells). The format is cell-based. Particulars: Table 3-B, Potency (α4β7); range classes; read-out: α4β7 cell (Hu) IC50. Details: host or cells: RPMI 8866 human B lymphoblastoid cells. A digest of the protocol: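 Adhesion read-out: MTT absorbance at 570 nm minus no-cell wells, after three washes. Plates coated with rh MAdCAM-1/Fc received peptide dilutions plus 200,000 RPMI 8866 cells in Mn2+ (1 mM)-supplemented DMEM, 0.1% BSA, HEPES pH 7, incubated 30-45 min, 37 °C.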

SMILES strings stand for the structures. Numbered stars: 1 amine (or outer) side, 2 acyl side, 3 side chain; on linkers, the order of the positions; unused ones are H or OH. Bridge positions count the residues as written; N and C are the ends. Square brackets hold non-standard residues; d marks the D form. Peptide text beside a SMILES is read from it. I, II: the chains in the order shown. Phe(3,4-Cl2) = N[C@@H](Cc1ccc(Cl)c(Cl)c1)C(=O)O; Phe(2,4-Cl2) = N[C@@H](Cc1ccc(Cl)cc1Cl)C(=O)O; 1Nal = N[C@@H](Cc1cccc2ccccc12)C(=O)O; 2Nal = N[C@@H](Cc1ccc2ccccc2c1)C(=O)O; Diglycolyl = O=C(COCC(=O)[*:2])[*:1]; NMeR = CN[C@@H](CCCNC(=N)N)C(=O)O; hPhe = N[C@@H](CCc1ccccc1)C(=O)O; Tic = O=C(O)[C@@H]1Cc2ccccc2CN1; NMeK = CN[C@@H](CCCCN)C(=O)O; Pen = CC(C)(S)[C@H](N)C(=O)O; dNMeK = CN[C@H](CCCCN)C(=O)O

α4β7, sequence (P13612 34-1032): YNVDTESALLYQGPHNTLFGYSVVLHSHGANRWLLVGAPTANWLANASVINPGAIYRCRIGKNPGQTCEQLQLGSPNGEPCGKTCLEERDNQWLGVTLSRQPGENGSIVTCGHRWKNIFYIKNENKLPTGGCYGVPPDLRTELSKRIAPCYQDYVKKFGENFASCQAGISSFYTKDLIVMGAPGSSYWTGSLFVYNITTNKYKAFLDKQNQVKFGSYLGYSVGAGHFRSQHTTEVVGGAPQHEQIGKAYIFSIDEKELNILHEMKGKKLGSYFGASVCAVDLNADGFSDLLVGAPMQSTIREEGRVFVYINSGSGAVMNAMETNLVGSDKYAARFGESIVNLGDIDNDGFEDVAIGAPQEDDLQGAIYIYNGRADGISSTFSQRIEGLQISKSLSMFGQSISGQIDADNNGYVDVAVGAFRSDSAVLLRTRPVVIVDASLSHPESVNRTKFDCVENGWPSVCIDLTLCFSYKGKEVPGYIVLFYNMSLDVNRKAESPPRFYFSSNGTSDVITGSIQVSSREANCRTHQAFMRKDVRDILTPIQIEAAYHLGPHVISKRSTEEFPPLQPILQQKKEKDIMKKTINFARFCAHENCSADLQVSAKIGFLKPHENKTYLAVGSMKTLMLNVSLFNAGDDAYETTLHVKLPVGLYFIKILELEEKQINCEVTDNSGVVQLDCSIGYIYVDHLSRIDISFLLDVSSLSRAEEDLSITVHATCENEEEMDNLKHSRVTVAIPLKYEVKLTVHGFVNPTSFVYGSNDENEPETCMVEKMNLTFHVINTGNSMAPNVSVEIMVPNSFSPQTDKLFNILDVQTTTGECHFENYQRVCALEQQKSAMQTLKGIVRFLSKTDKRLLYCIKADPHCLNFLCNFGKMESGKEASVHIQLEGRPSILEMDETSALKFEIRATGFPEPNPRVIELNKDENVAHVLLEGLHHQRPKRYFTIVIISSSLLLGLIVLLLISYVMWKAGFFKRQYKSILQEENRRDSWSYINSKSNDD
α4β7, sequence (P26010 20-798): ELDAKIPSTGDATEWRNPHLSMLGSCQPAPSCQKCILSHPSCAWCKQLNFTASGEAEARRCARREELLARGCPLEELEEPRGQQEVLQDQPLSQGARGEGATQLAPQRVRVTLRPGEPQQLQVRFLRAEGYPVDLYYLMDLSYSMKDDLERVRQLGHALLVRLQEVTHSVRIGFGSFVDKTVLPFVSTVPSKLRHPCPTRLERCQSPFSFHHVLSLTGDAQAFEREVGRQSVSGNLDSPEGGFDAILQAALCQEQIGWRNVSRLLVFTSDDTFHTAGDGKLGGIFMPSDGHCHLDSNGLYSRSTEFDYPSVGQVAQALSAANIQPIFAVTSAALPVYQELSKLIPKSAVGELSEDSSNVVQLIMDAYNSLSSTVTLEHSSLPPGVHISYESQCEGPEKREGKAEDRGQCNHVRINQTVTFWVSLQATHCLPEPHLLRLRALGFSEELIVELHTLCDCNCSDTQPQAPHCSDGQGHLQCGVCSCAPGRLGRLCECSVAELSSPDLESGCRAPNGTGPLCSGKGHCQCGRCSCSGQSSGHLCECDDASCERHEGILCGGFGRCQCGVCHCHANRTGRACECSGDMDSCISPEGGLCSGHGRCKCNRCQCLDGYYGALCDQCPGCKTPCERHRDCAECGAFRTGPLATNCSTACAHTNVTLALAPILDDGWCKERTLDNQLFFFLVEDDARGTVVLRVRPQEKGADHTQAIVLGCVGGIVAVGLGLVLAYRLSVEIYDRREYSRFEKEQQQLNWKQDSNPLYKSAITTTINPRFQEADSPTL
T1 sequence (P13612 34-977 limits assumed): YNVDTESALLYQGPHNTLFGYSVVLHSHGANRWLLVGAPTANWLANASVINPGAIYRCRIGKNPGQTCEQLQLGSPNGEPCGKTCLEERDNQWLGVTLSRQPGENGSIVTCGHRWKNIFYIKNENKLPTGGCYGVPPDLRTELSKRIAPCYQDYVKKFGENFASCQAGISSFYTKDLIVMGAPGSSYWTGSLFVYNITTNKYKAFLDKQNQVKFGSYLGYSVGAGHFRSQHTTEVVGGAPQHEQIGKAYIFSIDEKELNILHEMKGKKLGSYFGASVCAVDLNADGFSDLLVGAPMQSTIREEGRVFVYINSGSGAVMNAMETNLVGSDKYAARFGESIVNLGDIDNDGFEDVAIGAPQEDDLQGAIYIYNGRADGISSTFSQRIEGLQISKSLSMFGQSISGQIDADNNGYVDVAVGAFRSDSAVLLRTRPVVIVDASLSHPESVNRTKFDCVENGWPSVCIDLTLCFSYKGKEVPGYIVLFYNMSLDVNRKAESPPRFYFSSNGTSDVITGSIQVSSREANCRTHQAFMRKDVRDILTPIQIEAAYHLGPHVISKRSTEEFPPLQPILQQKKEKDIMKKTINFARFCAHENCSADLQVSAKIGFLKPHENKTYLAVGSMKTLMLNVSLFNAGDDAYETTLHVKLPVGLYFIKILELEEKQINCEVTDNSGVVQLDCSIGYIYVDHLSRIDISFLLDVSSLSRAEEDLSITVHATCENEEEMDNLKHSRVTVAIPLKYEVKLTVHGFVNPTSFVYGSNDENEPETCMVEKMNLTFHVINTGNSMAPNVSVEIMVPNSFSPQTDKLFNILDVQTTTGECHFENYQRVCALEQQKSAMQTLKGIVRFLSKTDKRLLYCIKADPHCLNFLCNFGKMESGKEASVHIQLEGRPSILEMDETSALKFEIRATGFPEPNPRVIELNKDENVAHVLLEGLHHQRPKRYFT
T1 sequence (P26010 20-723 limits assumed): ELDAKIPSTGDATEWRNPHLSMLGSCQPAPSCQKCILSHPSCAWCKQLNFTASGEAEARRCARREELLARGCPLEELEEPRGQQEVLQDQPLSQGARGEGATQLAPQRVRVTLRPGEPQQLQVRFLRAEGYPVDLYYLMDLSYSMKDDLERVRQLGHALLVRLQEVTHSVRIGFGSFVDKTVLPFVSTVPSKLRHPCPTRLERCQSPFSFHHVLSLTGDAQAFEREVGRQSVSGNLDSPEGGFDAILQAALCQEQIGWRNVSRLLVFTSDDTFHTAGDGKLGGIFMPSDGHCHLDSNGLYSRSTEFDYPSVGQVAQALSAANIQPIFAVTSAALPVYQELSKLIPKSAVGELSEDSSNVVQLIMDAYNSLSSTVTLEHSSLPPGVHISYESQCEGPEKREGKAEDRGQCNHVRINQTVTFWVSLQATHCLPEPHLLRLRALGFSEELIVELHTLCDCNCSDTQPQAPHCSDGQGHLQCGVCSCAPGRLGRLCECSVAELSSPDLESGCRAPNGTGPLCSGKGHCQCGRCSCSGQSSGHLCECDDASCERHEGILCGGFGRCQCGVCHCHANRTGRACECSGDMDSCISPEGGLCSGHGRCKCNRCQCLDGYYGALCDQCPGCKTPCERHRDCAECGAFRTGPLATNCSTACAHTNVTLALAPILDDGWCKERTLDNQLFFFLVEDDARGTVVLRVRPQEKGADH

As for `CC(=O)N[C@@H]1C(=O)N(C)[C@@H](CCCNC(=N)N)C(=O)N[C@@H](CO)C(=O)N[C@@H](CC(=O)O)C(=O)N[C@@H]([C@@H](C)O)C(=O)N[C@@H](CC(C)C)C(=O)N[C@H](C(=O)N[C@@H](Cc2ccc3ccccc3c2)C(=O)N[C@H](CCC(=O)O)C(=O)N[C@H](CCCCN)C(N)=O)C(C)(C)SSC1(C)C` [compound 9] (Ac-[Pen][NMeR]SDTL[Pen][2Nal][dE][dK]-NH2; disulfide 1-7), the IC50 on rh integrin α4β7 is 0.01 to 0.025 µM; on α4β7 it was 0.1 to 0.5 µM.

Consider `CC(=O)N[C@@H]1C(=O)N(C)[C@@H](CCCNC(=N)N)C(=O)N[C@@H](CO)C(=O)N[C@@H](CC(=O)O)C(=O)N[C@@H]([C@@H](C)O)C(=O)N[C@@H](CC(C)C)C(=O)N[C@H](C(=O)N[C@@H](Cc2cccc3ccccc23)C(=O)N[C@H](CCC(=O)O)C(=O)N(C)[C@H](CCCCN)C(N)=O)C(C)(C)SSC1(C)C` [compound 12] (Ac-[Pen][NMeR]SDTL[Pen][1Nal][dE][dNMeK]-NH2; disulfide 1-7), for which, at rh integrin α4β7, the IC50 is 0.025 to 0.05 µM.

Regarding `CC(=O)N[C@@H]1C(=O)N(C)[C@@H](CCCNC(=N)N)C(=O)N[C@@H](CO)C(=O)N[C@@H](CC(=O)O)C(=O)N[C@@H]([C@@H](C)O)C(=O)N[C@@H](CC(C)C)C(=O)N[C@H](C(=O)N[C@@H](Cc2ccc3ccccc3c2)C(=O)N[C@H](CCC(=O)O)C(=O)N(C)[C@H](CCCCN)C(N)=O)C(C)(C)SSC1(C)C` [compound 13] (Ac-[Pen][NMeR]SDTL[Pen][2Nal][dE][dNMeK]-NH2; disulfide 1-7), the concentration for half-maximal inhibition (IC50) lay within 0.01 to 0.025 µM on rh integrin α4β7 and 0.1 to 0.5 µM on α4β7.

Turning to `CC(=O)N[C@@H]1C(=O)N(C)[C@@H](CCCNC(=N)N)C(=O)N[C@@H](CO)C(=O)N[C@@H](CC(=O)O)C(=O)N[C@@H]([C@@H](C)O)C(=O)N[C@@H](CC(C)C)C(=O)N[C@H](C(=O)N[C@@H](CCc2ccccc2)C(=O)N[C@H](CCC(=O)O)C(=O)N[C@H](CCCCN)C(N)=O)C(C)(C)SSC1(C)C` [compound 14] (Ac-[Pen][NMeR]SDTL[Pen][hPhe][dE][dK]-NH2; disulfide 1-7), the IC50 on rh integrin α4β7 fell in the range of 0.025 to 0.05 µM.

With `CC(=O)N[C@@H]1C(=O)N(C)[C@@H](CCCNC(=N)N)C(=O)N[C@@H](CO)C(=O)N[C@@H](CC(=O)O)C(=O)N[C@@H]([C@@H](C)O)C(=O)N[C@@H](CC(C)C)C(=O)N[C@H](C(=O)N[C@@H](Cc2ccc3ccccc3c2)C(=O)N[C@@H](CCC(=O)O)C(=O)N(C)[C@H](CCCCN)C(N)=O)C(C)(C)SSC1(C)C` [compound 15] (Ac-[Pen][NMeR]SDTL[Pen][2Nal]E[dNMeK]-NH2; disulfide 1-7), the half-maximal inhibitory concentration (IC50) at rh integrin α4β7 was below 0.01 µM.

`CC(=O)N[C@@H]1C(=O)N(C)[C@@H](CCCNC(=N)N)C(=O)N[C@@H](CO)C(=O)N[C@@H](CC(=O)O)C(=O)N[C@@H]([C@@H](C)O)C(=O)N[C@@H](CC(C)C)C(=O)N[C@H](C(=O)N[C@@H](Cc2ccc(Cl)cc2Cl)C(=O)N[C@@H](CCC(=O)O)C(=O)N[C@H](CCCCN)C(N)=O)C(C)(C)SSC1(C)C` [compound 16] (Ac-[Pen][NMeR]SDTL[Pen][Phe(2,4-Cl2)]E[dK]-NH2; disulfide 1-7): the concentration for half-maximal inhibition (IC50) at rh integrin α4β7 lay in the range of 0.01 to 0.025 µM.

In the case of `CC(=O)N[C@@H]1C(=O)N(C)[C@@H](CCCNC(=N)N)C(=O)N[C@@H](CO)C(=O)N[C@@H](CC(=O)O)C(=O)N[C@@H]([C@@H](C)O)C(=O)N[C@@H](CC(C)C)C(=O)N[C@H](C(=O)N[C@@H](Cc2ccc(Cl)c(Cl)c2)C(=O)N[C@@H](CCC(=O)O)C(=O)N[C@H](CCCCN)C(N)=O)C(C)(C)SSC1(C)C` [compound 17] (Ac-[Pen][NMeR]SDTL[Pen][Phe(3,4-Cl2)]E[dK]-NH2; disulfide 1-7), the IC50 on rh integrin α4β7 was 0.01 to 0.025 µM.

In the case of `CC(=O)N[C@@H]1C(=O)N(C)[C@@H](CCCNC(=N)N)C(=O)N[C@@H](CO)C(=O)N[C@@H](CC(=O)O)C(=O)N[C@@H]([C@@H](C)O)C(=O)N[C@@H](CC(C)C)C(=O)N[C@H](C(=O)N[C@@H](CCc2ccccc2)C(=O)N[C@@H](CCC(=O)O)C(=O)N[C@H](CCCCN)C(N)=O)C(C)(C)SSC1(C)C` [compound 19] (Ac-[Pen][NMeR]SDTL[Pen][hPhe]E[dK]-NH2; disulfide 1-7), the concentration for half-maximal inhibition (IC50) at rh integrin α4β7 was in the range of 0.01 to 0.025 µM.

Take `CC(=O)N[C@@H]1C(=O)N(C)[C@@H](CCCNC(=N)N)C(=O)N[C@@H](CO)C(=O)N[C@@H](CC(=O)O)C(=O)N[C@@H]([C@@H](C)O)C(=O)N[C@@H](CC(C)C)C(=O)N[C@H](C(=O)N[C@@H](CCc2ccccc2)C(=O)N[C@H](CCC(=O)O)C(=O)N[C@H](CCCCNC(=O)COCC(=O)NCCCC[C@@H](NC(=O)[C@@H](CCC(=O)O)NC(=O)[C@H](CCc2ccccc2)NC(=O)[C@H]2NC(=O)[C@H](CC(C)C)NC(=O)[C@H]([C@@H](C)O)NC(=O)[C@H](CC(=O)O)NC(=O)[C@H](CO)NC(=O)[C@H](CCCNC(=N)N)N(C)C(=O)[C@@H](NC(C)=O)C(C)(C)SSC2(C)C)C(N)=O)C(N)=O)C(C)(C)SSC1(C)C` [compound 40] (I: Ac-[Pen][NMeR]SDTL[Pen][hPhe][dE][dK]-NH2 / II: Ac-[Pen][NMeR]SDTL[Pen][hPhe][dE][dK]-NH2; disulfide I:1-I:7, II:1-II:7; linker I:10-II:10 via Diglycolyl): the figures for the 50% inhibitory concentration (IC50) on rh integrin α4β7 and at α4β7 were below 0.01 µM and 0.1 to 0.5 µM, respectively.

For `COC(=O)C[C@@H]1NC(=O)[C@H](CO)NC(=O)[C@H](CCCNC(=N)N)N(C)C(=O)[C@@H](NC(C)=O)C(C)(C)SSC(C)(C)[C@@H](C(=O)N[C@@H](Cc2c[nH]c3ccccc23)C(=O)N[C@@H](CCC(=O)O)C(=O)N[C@H](CCCCNC(=O)COCC(=O)NCCCC[C@@H](NC(=O)[C@H](CCC(=O)O)NC(=O)[C@H](Cc2c[nH]c3ccccc23)NC(=O)[C@H]2NC(=O)[C@H](CC(C)C)NC(=O)[C@H]([C@@H](C)O)NC(=O)[C@H](CC(=O)OC)NC(=O)[C@H](CO)NC(=O)[C@H](CCCNC(=N)N)N(C)C(=O)[C@@H](NC(C)=O)C(C)(C)SSC2(C)C)C(N)=O)C(N)=O)NC(=O)[C@H](CC(C)C)NC(=O)[C@H]([C@@H](C)O)NC1=O` [compound 73] (I: Ac-[Pen][NMeR]SD(OMe)TL[Pen]WE[dK]-NH2 / II: Ac-[Pen][NMeR]SD(OMe)TL[Pen]WE[dK]-NH2; disulfide I:1-I:7, II:1-II:7; linker I:10-II:10 via Diglycolyl), the half-maximal inhibitory concentration (IC50) at rh integrin α4β7 and at α4β7 was below 0.01 µM throughout.

Regarding `CC(=O)N[C@@H]1C(=O)N(C)[C@@H](CCCNC(=N)N)C(=O)N[C@@H](CO)C(=O)N[C@@H](CC(=O)O)C(=O)N[C@@H]([C@@H](C)O)C(=O)N[C@@H](CC(C)C)C(=O)N[C@H](C(=O)N[C@@H](Cc2ccc3ccccc3c2)C(=O)N[C@H](CCCCN)C(N)=O)C(C)(C)SSC1(C)C` [compound 88] (Ac-[Pen][NMeR]SDTL[Pen][2Nal][dK]-NH2; disulfide 1-7), the IC50 at rh integrin α4β7 was 0.01 to 0.025 µM.

With `CC(=O)N[C@@H]1C(=O)N(C)[C@@H](CCCNC(=N)N)C(=O)N[C@@H](CO)C(=O)N[C@@H](CC(=O)O)C(=O)N[C@@H]([C@@H](C)O)C(=O)N[C@@H](CC(C)C)C(=O)N[C@H](C(=O)N2Cc3ccccc3C[C@H]2C(=O)N[C@H](CCC(=O)O)C(=O)N[C@H](CCCCN)C(N)=O)CSSC1(C)C` [compound 89] (Ac-[Pen][NMeR]SDTLC[Tic][dE][dK]-NH2; disulfide 1-7), the IC50 at rh integrin α4β7 was in the range of 0.025 to 0.05 µM.

Regarding `CC(=O)N[C@@H]1C(=O)N(C)[C@@H](CCCNC(=N)N)C(=O)N[C@@H](CO)C(=O)N[C@@H](CC(=O)O)C(=O)N[C@@H]([C@@H](C)O)C(=O)N[C@@H](CC(C)C)C(=O)N[C@H](C(=O)N[C@@H](Cc2ccc3ccccc3c2)C(=O)N[C@@H](CCC(=O)O)C(=O)N(C)[C@@H](CCCCNC(=O)COCC(=O)NCCCC[C@@H](C(N)=O)N(C)C(=O)[C@H](CCC(=O)O)NC(=O)[C@H](Cc2ccc3ccccc3c2)NC(=O)[C@H]2NC(=O)[C@H](CC(C)C)NC(=O)[C@H]([C@@H](C)O)NC(=O)[C@H](CC(=O)O)NC(=O)[C@H](CO)NC(=O)[C@H](CCCNC(=N)N)N(C)C(=O)[C@@H](NC(C)=O)C(C)(C)SSC2(C)C)C(N)=O)C(C)(C)SSC1(C)C` [compound 138] (I: Ac-[Pen][NMeR]SDTL[Pen][2Nal]E[NMeK]-NH2 / II: Ac-[Pen][NMeR]SDTL[Pen][2Nal]E[NMeK]-NH2; disulfide I:1-I:7, II:1-II:7; linker I:10-II:10 via Diglycolyl), the half-maximal inhibitory concentration (IC50) on rh integrin α4β7 and on α4β7 was 0.01 to 0.025 µM each time.

One may read the IC50 as the point on the concentration scale where inhibition reaches its midpoint.

Source of the values: US9809623B2, “α4β7 peptide monomer and dimer antagonists” (Protagonist Therapeutics, Inc., priority 2014, dated 2017).
